Data reported in US20100075969A1, “Angiogenesis” (UNIVERSITY OF LEICESTER, priority 2006, published 2010).

Experiments:
[1] = system: dermal microvascular endothelial cells; test: Scratch (wound healing) assay, dermal microvascular endothelial cells; assay type: cell-based, human; details: 10 nM ICI 118,551 or 1 μM salbutamol
Method: Endothelial cells were grown to confluence in medium on plastic tissue culture dishes (Fisher Scientific, Pittsburgh, Pa.) coated with 60 μg/ml collagen I (Vitrogen 100, Collagen Corp., Palo Alto, Calif.) in PBS for 1 hour at 37° C. […] Demarcated areas of each wound were photographed on an inverted Nikon Diaphot microscope at the time of wounding (time 0) up to wound healing as described in Pullar et al., (2003) J Biol Chem 278 (25), 22555-22562. Image J was used to measure each demarcated wound area at time 0 and 20 hours post wounding and the results were averaged to calculate the % healing for control and β2-AR ligand-treated cells.

[2] = system: endothelial cells; test: In vitro model of angiogenesis: tubule formation on Matrigel; assay type: cell-based
Method: An experimental in vitro model was employed to observe the effect of β2-AR ligands (ie agonists and antagonists) on endothelial cell vessel formation. […] The endothelial cells plated on the top of the Matrigel were maintained in a 37° C. incubator with 5% CO2 Tubule formation was observed every 4 hours up to 21 hours using an inverted Nikon Diaphot microscope.

[3] = system: aortic rings; test: Rat aortic ring assay (capillary outgrowth); assay type: cell-based; details: after 90 hours; 10 nM ICI 118,551 or 1 μM salbutamol; vs untreated
Method: A rat aortic ring assay (as described in Nicosia and Ottinetti (1990) Lab Invest 63 (1), 115-122; and Diglio et al (1989) Lab Invest 60 (4), 523-531) was used to study the effect of β2-AR ligands on vessel formation. Rat aorta was obtained from animals that were euthanised under a Home Office Approved Schedule 1 method. The aorta was cut into small rings with sterile scissors and each piece was submerged under a 50 μl bead of Matrigel in the bottom of each in a 24-well dish. […] Vessel growth was observed using an inverted Nikon Diaphot microscope every 30 hours and images were captured as described in Pullar et al (2005) J Cell Sci 118 (Pt 9), 2023-2034; Pullar et al (2006) Mol Biol Cell and Pullar et al (2001) Cell Motil Cytoskeleton 50 (4), 207-217.

[4] = system: chick chorioallantoic membrane (CAM); test: Chick chorioallantoic membrane (CAM) assay; assay type: in vivo; details: day 8 chick embryos, 48 hours; 10 μM agonist, 10 μM forskolin or 10 nM ICI 118,551; control 15
Method: Fertilised chicken eggs were obtained within the first two days of embryonic development, and were cleaned and incubated at 37° C. for 24 hours. On day 3 of development, 1-2 ml of albumin was removed from the apex end of each egg with a sterile needle. A window of 1.5×1.5 cm was created in the shell with a Dremmel tool, and was sealed with clear adhesive tape. […] Images of the exposed vasculature were captured 48 hours later using a Nikon microscope/imaging system. Scale bar=1 mm. Bifurcation points were counted in four fields for the control/treatment groups.

[5] = system: dermal microvascular endothelial cells; test: Galvanotaxis in applied electric field, dermal microvascular endothelial cells; assay type: cell-based, human; details: electric field 100 mV/mm
Method: (§1) Endothelial cells were seeded at low density in medium within electrostatic chambers for 2-3 hours prior to exposure to an electric field (EF). A roof consisting of a No 1 cover slip was applied and sealed on top of the chamber, as previously described (in Pullar et al (2005) J Cell Sci 118 (Pt 9), 2023-2034; Pullar et al (2006) Mol Biol Cell and Pullar et al (2001) Cell Motil Cytoskeleton 50 (4), 207-217). A direct current EF of 100 mV/mm was applied through agar bridges connecting silver/silver chloride electrodes to the culture medium at either side of the chamber. The chamber was placed on an inverted microscope with temperature controlled at 37° C.
(§2) Time-lapse images were recorded every 10 minutes over 1 hour and analyzed with Improvision software as previously described (Pullar et al (2005) J Cell Sci 118 (Pt 9), 2023-2034; Pullar et al (2006) Mol Biol Cell and Pullar et al (2001) Cell Motil Cytoskeleton 50 (4), 207-217). […] Therefore, the average of directedness values of a population of cells gives an objective quantification of how, directionally, cells have moved within the electric field. […] Migration rate was analyzed with the following two parameters, ie trajectory speed (μm/min) is the total length of the migration trajectory of a cell divided by the given period of time (ie 60 minutes).

[6] = system: aortic macrovascular endothelial cells; test: Galvanotaxis in applied electric field, aortic macrovascular endothelial cells; assay type: cell-based, human; details: electric field 100 mV/mm
Method: as §1, §2

[7] = system: MTLn3 cells; test: Galvanotaxis in applied electric field, MTLn3 mammary adenocarcinoma cells; assay type: cell-based
[8] = system: B16-BL6 melanoma cells; test: β2-AR/melanoma in-vivo study (B16-BL6 in SKH1 mice); details: for tumour surface area / tumour average surface area: s.c. pump, ICI 118,551 0.75 mg/kg/day or salbutamol 3 mg/kg/day, 7 mice per group
Text: Twenty one, 5 week-old female SKH1 mice (immunocompetent, hairless albino strain, Charles River, Wilmington, Mass.) weighing 18 g-25 g were divided into 3 groups of 7 mice.
Melanomas were imaged daily by both transillumination and surface photography at 2× magnification, using an upright Nikon microscope controlled by Pixera software (San Jose, Calif.). Mice were sacrificed after 11 days by CO2 asphyxiation, and the tumor, lungs and the liver were excised and fixed in 10% buffered formalin for 7 days.
All mice were sacrificed by CO2 asphyxiation, 11 days post melanoma cell injection. The tumours were excised from their sub-dermal location, fixed in saline-buffered 10% formalin for 10 days, and then weighed. The average weight of the tumours from each group was calculated and statistically analysed.

[9] = 1 μM salbutamol, control cosine=0.5

Structure (SMILES) | increase in rate of wound closure [1] [%] | time to highly organized, mature capillary network on Matrigel ([2]; 10 nM ICI 118,551, untreated cells: within 21 hours) [h] | capillary outgrowth from cut edges of aortic rings [3] | number of vessel bifurcation points [4] | increase in directional migration ([5]; 10 nM ICI 118,551) [%] | increase in directional migration ([6]; 10 nM ICI 118,551) [%] | effect on galvanotaxis [7] | average weight of tumours ([8]; 11 days post melanoma cell injection, vs control group) | number of mice without any signs of tumour development ([8]; after 3 days, of 7 mice, ICI 118,551 0.75 mg/kg/day) | tumour surface area ([8]; after 3 days) | number of mice with no visible signs of tumour development ([8]; after 7 days and by end of study (11 days), of 7 mice, ICI 118,551 0.75 mg/kg/day) | tumour average surface area ([8]; after 7 days) | size of excised tumours (photograph) ([8]; at eleven days, vs control) | capillary network formed on Matrigel ([2]; by 21 hours, 1 μM salbutamol) | migration directedness (cosine) [5, 9] | migration directedness (cosine) [6, 9] | reduction of directional migration [7] | surface area of the very large tumour of one mouse ([8]; after 7 days, single mouse, salbutamol 3 mg/kg/day) [mm^2]
Cc1ccc(OCC(O)C(C)NC(C)C)c2c1CCC2 (stereo not drawn) [ICI 118,551] | 40 | ≤ 12 | decreased the length of the capillaries | > 50 | ≤ 60 | ≤ 60 | little effect on galvanotaxis | statistically lower than that for the control group | two | 1.8+/−0.61 mm^2 | one | 4.4+/−1.5 mm^2 | much smaller than those in the control sample |  |  |  |  | 
C=C[C@@]1(C)CC(=O)[C@]2(O)[C@@]3(C)[C@@H](O)CCC(C)(C)[C@@H]3[C@H](O)[C@H](OC(C)=O)[C@@]2(C)O1 [forskolin] |  |  |  | 5 |  |  |  |  |  |  |  |  |  |  |  |  |  | 
CC(C)(C)NCC(O)c1ccc(O)c(CO)c1 (stereo not drawn) [salbutamol] | 40 |  | significantly increased the length and number of the capillaries | 4 |  |  |  |  |  | 4.1+/−1.3 mm^2 |  | 10.4+/−2.9 mm^2 |  | disorganized, immature capillary network | 0 | 0 | more than 50% | 24.8
